Assay results reported in patent US5733563A, “Albumin based hydrogel” (Universite du Quebec a Montreal, priority 1996, dated 1998).

B1: asparaginase of E.coli, soluble form (Escherichia coli K-12) (protein)
chain: LPNITILATGGTIAGGGDSATKSNYTVGKVGVENLVNAVPQLKDIANVKGEQVVNIGSQDMNDNVWLTLAKKINTDCDKTDGFVITHGTDTMEETAYFLDLTVKCDKPVVMVGAMRPSTSMSADGPFNLYNAVVTAADKASANRGVLVVMNDTVLDGRDVTKTNTTDVATFKSVNYGPLGYIHNGKIDYQRTPARKHTSDTPFDVSKLNELPKVGIVYNYANASDLPAKALVDAGYDGIVSAGVGNGNLYKSVFDTLATAAKTGTAVVRSSRVPTGATTQDAEVDDAKYGFVASGTLNPQKARVLLQLALTQTKDPQQIQQIFNQY

Assays:
[1] = target: asparaginase of E.coli immobilized in hydrogel prepared with albumin and PEG 10,000 (Escherichia coli, UniProt P00805); experiment: Apparent Km of asparaginase immobilized in albumin-PEG 10,000 hydrogel; assay type: biochemical; details: slab thickness of 3 mm
Procedure: (§1) As another example of enzyme immobilization in hydrogels prepared with albumin and PEG 10,000 of Mr, the enzyme asparaginase of E.coli was used. […] The operational stability of the immobilized enzyme in presence of a continuous feeding in substrate extend at 37° C. over a 20 days period without significant loss of activity.

[2] = substrate: NC(=O)C[C@H](N)C(=O)O; experiment: Km of soluble asparaginase for asparagine; assay type: biochemical, E.coli; details: other: soluble form of the enzyme; pH 8.0; 37.0 °C
Procedure: as §1

Molecule | apparent Km for the substrate asparagine [1] [µM] | Km [2] [µM]
NC(=O)C[C@H](N)C(=O)O [asparagine] | 2.4 | –
B1 | – | 2.2
